Our source for the Protective value values is patent publication US6787557B2 (priority 2000, dated 2004).

The subject of assay [1] is rice blast fungi. The format is in vivo, Pyricularia oryzae.
The subject of assay [2] is rice blast fungi. In kind it is in vivo, Pyricularia oryzae. The source holds these as a separate data set.

“And” between values parts separate entries of the source, which are not always exact repeats. Identical values can stand only once. Like-named read-outs stand apart in the source and are kept apart here.

As to “2,3-dimethyl-6-t-butyl-8-fluoro-4-acetoxyacetylquinoline [Compound 11]”, the Protective value amounted to 88 in the assay with rice blast fungi [1] (30 ppm), 99 in the assay with rice blast fungi [1] (100 ppm), 94 in the assay with rice blast fungi [2] (3 ppm) and 100 in the assay on rice blast fungi [2] (10 ppm).
Regarding “2,3-dimethyl-6-t-butyl-8-fluoro-4-butyrylquinoline [Compound 4]”, the Protective value with rice blast fungi [1] (37.5 ppm) amounted to 66; in the assay on rice blast fungi [1] (75 ppm) it was 94.
As to “2,3-dimethyl-6-t-butyl-8-fluoro-4-methoxyacetylquinoline [Compound 10]”, the Protective value turned out to be 90 with rice blast fungi [1] (30 ppm), 100 with rice blast fungi [1] (100 ppm), 99 with rice blast fungi [2] (3 ppm) and 100 in the assay with rice blast fungi [2] (10 ppm).
With “2,3-dimethyl-6-t-butyl-8-fluoro-4-n-butoxycarbonyl-quinoline [Compound 9]”, the Protective value in the assay on rice blast fungi [1] (in vivo) was 98 and 87; with rice blast fungi [2] (in vivo), 99 and 90.
In the case of “2,3-dimethyl-6-t-butyl-8-fluoro-4-n-propoxycarbonyl-quinoline [Compound 8]”, the Protective value in the assay on rice blast fungi [1] (in vivo) is 98 and 84; with rice blast fungi [2] (in vivo), 100 and 92.
For the compound “2,3-dimethyl-6-t-butyl-8-fluoro-4-valerylquinoline [Compound 5]”, the Protective value was determined as 82 in the assay with rice blast fungi [1] (37.5 ppm), 95 in the assay on rice blast fungi [1] (75 ppm), 84 in the assay with rice blast fungi [2] (3 ppm) and 99 with rice blast fungi [2] (10 ppm).
With `Cc1nc2c(F)cc(C(C)(C)C)cc2c(O)c1C` [Compound 1, 2,3-dimethyl-6-t-butyl-8-fluoro-4-hydroxyquinoline], the Protective value is on record as 93 in the assay on rice blast fungi [2] (3 ppm) and 100 in the assay on rice blast fungi [2] (10 ppm).
